# Source: article PMC7397466, “Expression, purification and crystal structure determination of a ferredoxin reductase from the actinobacterium Thermobifida fusca” (Acta Crystallographica. Section F, Structural Biology …, 2020)
# Molecular target: T1, FdR9 (Thermobifida fusca, UniProt Q47QF8)
# T1 construct: gene Tfu_1273
# Experiment: X-ray crystal structure, […] Å
# Type: binding
# Conditions: copurified cofactor; crystals at pH 6.5, 298 K
# T1 sequence (Q47QF8 entry or part of it): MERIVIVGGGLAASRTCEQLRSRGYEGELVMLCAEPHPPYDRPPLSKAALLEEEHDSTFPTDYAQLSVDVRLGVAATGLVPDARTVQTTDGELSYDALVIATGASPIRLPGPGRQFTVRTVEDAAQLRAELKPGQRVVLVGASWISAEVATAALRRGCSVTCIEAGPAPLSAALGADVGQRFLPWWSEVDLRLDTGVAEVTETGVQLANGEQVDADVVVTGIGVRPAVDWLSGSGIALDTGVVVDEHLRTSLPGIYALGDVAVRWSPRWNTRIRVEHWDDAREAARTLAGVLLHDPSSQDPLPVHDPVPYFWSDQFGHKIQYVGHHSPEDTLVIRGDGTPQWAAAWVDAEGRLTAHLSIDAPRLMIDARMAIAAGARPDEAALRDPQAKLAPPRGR
smiles,measurement,value
Cc1cc2nc3c(=O)[nH]c(=O)nc-3n(C[C@H](O)[C@H](O)[C@H](O)COP(=O)(O)OP(=O)(O)OC[C@H]3O[C@@H](n4cnc5c(N)ncnc54)[C@H](O)[C@@H]3O)c2cc1C [FAD],"X-ray crystal structure, 1.9 Å",The resulting electron-density map allowed the identification of the FAD molecule bound to the reductase
